Assay results as given in article PMC3660600, “Brevilin A, a Novel Natural Product, Inhibits Janus Kinase Activity and Blocks STAT3 Signaling in Cancer Cells” (PLoS ONE, 2013).

Assays:
[1] = biological target: c-Src (Homo sapiens, UniProt P12931); test: phosphotyrosine Western blot of immunoprecipitated Flag-c-Src from treated HEK293T cells ([…], […] h); format: cell-based
[2] = biological target: T1, Tyk2 (Homo sapiens, UniProt P29597); test: in vitro kinase assay with purified Tyk2-JH1 and recombinant hSTAT3 substrate, Western blot pTyr705-STAT3 ([…]); format: biochemical
T1 construct: JH1 tyrosine kinase domain, C-terminal Flag-His tag, purified from HEK293T
T1 sequence (P29597 880-1187 limits assumed): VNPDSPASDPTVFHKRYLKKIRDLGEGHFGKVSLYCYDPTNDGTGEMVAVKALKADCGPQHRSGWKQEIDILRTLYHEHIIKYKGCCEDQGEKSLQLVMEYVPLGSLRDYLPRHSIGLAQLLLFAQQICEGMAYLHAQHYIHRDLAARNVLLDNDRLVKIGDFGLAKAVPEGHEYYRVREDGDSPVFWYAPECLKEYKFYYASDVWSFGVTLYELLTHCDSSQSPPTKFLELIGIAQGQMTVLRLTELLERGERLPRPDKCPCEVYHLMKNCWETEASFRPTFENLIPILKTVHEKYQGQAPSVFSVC

[3] = biological target: T2, JAK3 (Homo sapiens, UniProt P52333); test: total tyrosine, STAT3 and STAT1 phosphorylation in HEK293T over-expressing JAK3-JH1, Western blot; format: cell-based
T2 construct: JH1 domain

[4] = biological target: T3, JAK1 (Homo sapiens, UniProt P23458); test: total tyrosine, STAT3 and STAT1 phosphorylation in HEK293T over-expressing JAK1-JH1, Western blot; format: cell-based
T3 construct: JH1 domain
T3 sequence (P23458 875-1153 limits assumed): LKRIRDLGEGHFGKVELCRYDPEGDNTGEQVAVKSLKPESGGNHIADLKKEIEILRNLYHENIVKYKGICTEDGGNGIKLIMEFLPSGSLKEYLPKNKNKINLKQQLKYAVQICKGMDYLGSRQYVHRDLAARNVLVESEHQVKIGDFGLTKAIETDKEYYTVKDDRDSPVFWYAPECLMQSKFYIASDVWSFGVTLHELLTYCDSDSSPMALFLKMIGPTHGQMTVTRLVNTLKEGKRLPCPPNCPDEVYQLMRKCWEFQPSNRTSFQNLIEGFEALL

Sequence of c-Src (P12931 2-536): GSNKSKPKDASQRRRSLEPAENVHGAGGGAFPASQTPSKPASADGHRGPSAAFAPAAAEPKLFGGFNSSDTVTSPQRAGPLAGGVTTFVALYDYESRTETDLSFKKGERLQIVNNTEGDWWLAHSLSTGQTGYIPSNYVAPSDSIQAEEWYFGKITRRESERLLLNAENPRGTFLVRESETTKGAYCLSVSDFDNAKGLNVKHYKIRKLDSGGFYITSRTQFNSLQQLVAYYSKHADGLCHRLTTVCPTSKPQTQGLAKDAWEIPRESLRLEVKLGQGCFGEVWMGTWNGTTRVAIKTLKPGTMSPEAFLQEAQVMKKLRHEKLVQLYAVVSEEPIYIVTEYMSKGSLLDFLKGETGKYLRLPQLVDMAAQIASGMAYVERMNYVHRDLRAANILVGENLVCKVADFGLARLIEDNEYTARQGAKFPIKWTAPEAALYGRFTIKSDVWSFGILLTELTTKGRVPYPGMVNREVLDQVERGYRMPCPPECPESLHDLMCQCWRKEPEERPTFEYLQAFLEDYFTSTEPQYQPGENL
T2 sequence (P52333 781-1124 limits assumed): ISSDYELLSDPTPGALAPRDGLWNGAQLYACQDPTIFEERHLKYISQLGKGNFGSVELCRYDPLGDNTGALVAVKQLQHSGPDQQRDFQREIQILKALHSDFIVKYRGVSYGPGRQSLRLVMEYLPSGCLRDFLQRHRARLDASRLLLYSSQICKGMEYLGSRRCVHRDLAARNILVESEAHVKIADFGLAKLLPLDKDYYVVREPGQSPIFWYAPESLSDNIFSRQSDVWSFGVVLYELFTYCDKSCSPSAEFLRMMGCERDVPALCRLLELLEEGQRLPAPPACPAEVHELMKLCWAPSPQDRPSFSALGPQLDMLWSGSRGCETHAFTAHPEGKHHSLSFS

Row | Compound | phosphotyrosine Western blot of immunoprecipitated Flag-c-Src from treated HEK29 [1] | in vitro kinase assay with purified Tyk2-JH1 and recombinant hSTAT3 substrate, W [2] | IC50 [3] | IC50 [4]
1 | Cc1cc(Nc2ncc3cc(-c4c(Cl)cccc4Cl)c(=O)n(C)c3n2)ccc1F [PD-180970] | IP results showed that PD180970 was able to decrease Src phosphorylation while Brevilin A was not |  |  | 
2 | C/C=C(/C)C(=O)O[C@H]1[C@@H]2[C@H](C)C(=O)O[C@@H]2C[C@@H](C)[C@@H]2C=CC(=O)[C@]21C [Brevilin A] |  | Western-Blot showed that Brevilin A inhibited Tyk2-JH1 kinase activity directly | IC50 measurements of four JAKs-JH1 truncated kinases. | IC50 measurements of four JAKs-JH1 truncated kinases.
